# Results taken from patent publication US11648316B2, “Oral pharmaceutical composition containing pemetrexed and production method thereof” (ICURE BNP CO., LTD., priority 2017, dated 2023).
# Read-outs that look alike come from different tables or passages of the source.
# Columns and labels:
# [1] = test system: Caco-2 cell monolayer membrane; test: Intestinal cell membrane permeability, Caco-2 cell monolayer, Example 9; assay type: in vitro ADME; details: Caco-2 monolayer, apical to basolateral, pemetrexed 200 μg/ml in HBSS, 37° C., up to 5 hr
# Procedure: Caco-2 cells were treated at 3×10^5 cells in each well of a 12-well Transwell (pore size: 0.4 μm, surface area: 1.12 cm^2; Corning, N.Y., USA). Dulbecco's modified Eagles medium (DMEM; Lonza, Basel, Switzerland) containing 10% fetal bovine serum (FBS; Gibco™, Thermo Fisher Scientific) and 1% penicillin/streptomycin (Gibco™) was replaced every 48 hr for 21 days to 29 days, and a Caco-2 cell membrane having a transepithelial electrical resistance (TEER) of 350 Ωcm^2 or more was used for in-vitro intestinal cell membrane permeability tests.
# Specifically, the culture medium was removed, culture was performed at 37° C. for 20 min with 0.5 ml of a Hanks' balanced salt solution (HESS), HBSS was removed, and each sample was diluted with HBSS so that the concentration of pemetrexed was 200 μg/ml, after which each sample thus diluted was added in an amount of 0.5 ml to the apical compartment of the Transwell, and the basolateral compartment of the Transwell was added with 1.5 ml of HBSS, followed by culturing at 37° C. After sample treatment, 100 μl of the sample was collected from the basolateral compartment of each well at 0.5, 1, 2, 3, 4 and 5 hr and then filtered with a membrane filter, after which the concentrations of PMX and the PMX/DCK ion-binding complex that permeated the intestinal cell membrane were measured using the same HPLC system as in Example 7. […]
# [2] = In-vivo bioavailability of oral nanoemulsion in rats, Example 11; details: rat
# [3] = Artificial intestinal membrane permeability (PAMPA), Example 7; assay type: in vitro ADME; details: PBS pH 6.8, pemetrexed 200 μg/ml, room temperature, 5 hr
# From the text: The intestinal membrane permeability of pemetrexed (PMX), the mixture of hydroxypropyl beta-cyclodextrin and pemetrexed (HP-beta CD/PMX), the mixture of hydroxypropyl beta-cyclodextrin and PMX/DCK ion-binding complex (HP-beta CD/PMX/DCK), the mixture of hydroxypropyl beta-cyclodextrin, PMX/DCK ion-binding complex and poloxamer (HP-beta CD/PMX/DCK/P188) prepared in Example 4, and the w/o/w nanoemulsion including the mixture of hydroxypropyl beta-cyclodextrin, PMX/DCK ion-binding complex and poloxamer (HP-beta CD/PMX/DCK/P188) prepared in Example 5 was evaluated using an artificial intestinal membrane (PAMPA; BD Biosciences, San Jose, Calif., USA).
# Each sample was diluted with phosphate-buffered saline (PBS, pH 6.8) so that the concentration of pemetrexed was 200 μg/ml, and was then added in an amount of 200 μl to the donor compartment of each well of a PAMPA plate, each acceptor compartment thereof was added with 300 μl of phosphate-buffered saline (PBS, pH 6.8), and the donor compartment and the acceptor compartment were linked and then allowed to stand at room temperature for 5 hr, after which the sample was recovered from the donor compartment and the acceptor compartment of each well of the PAMPA plate and the concentration of the permeated drug was measured as follows. […]
# The effective permeability (Pe) of each drug was calculated using the following equation. […]
# [4] = rat, in vivo, iv, 5 mg/kg
# Procedure: (§1) Separately, in order to evaluate oral bioavailability, a solution of pemetrexed in distilled water was injected in an amount of 200 μl into rats through the tail vein thereof. Blood samples (200 μl) were collected at scheduled times after individual drug administrations and immediately mixed with 50 μl of a sodium citrate (3.8%) solution. The collected blood samples were centrifuged at 2,500×g and 4° C. for 15 min, pemetrexed in plasma was extracted using a solid-phase extraction (SPE) cartridge, and the concentration of pemetrexed was measured through liquid chromatography/mass spectrometry (LC/MS).
# (§2) Each value represents mean±standard deviation (n=4 in each group).
# in vivo = details: rat
# Procedure: as §1, §2
# [5] = Artificial intestinal membrane permeability (PAMPA) of nanoemulsion with quercetin, Example 8; assay type: in vitro ADME; details: PBS pH 6.8, quercetin 400 μg/ml, room temperature, 5 hr, analyte quercetin
# Procedure: The intestinal membrane permeability of pemetrexed (PMX), quercetin and the w/o/w secondary nanoemulsions including the mixture of hydroxypropyl beta-cyclodextrin, PMX/DCK ion-binding complex and poloxamer (HP-beta CD/PMX/DCK/P188) prepared in Example 5 and quercetin was evaluated using an artificial intestinal membrane (PAMPA; BD Biosciences, San Jose, Calif., USA).
# Each sample was diluted with phosphate-buffered saline (PBS, pH 6.8) so that the concentration of pemetrexed was 200 μg/ml and the concentration of quercetin was 400 μg/ml, and was then added in an amount of 200 μl to the donor compartment of each well of a PAMPA plate, each acceptor compartment thereof was added with 300 μl of phosphate-buffered saline (PBS, pH 6.8), and the donor compartment and the acceptor compartment were linked and then allowed to stand at room temperature for 5 hr, after which the sample was recovered from the donor compartment and the acceptor compartment of each well of the PAMPA plate, and the concentration of the permeated drug was measured as follows.
# The concentrations of PMX and PMX/DCK were analyzed by introducing 20 μl of the sample into an HPLC system with a C18 column (4.6×250 mm, 5 μm, 100 □) and allowing a mixture of purified water (pH 3.2, adjusted with phosphoric acid) and acetonitrile at 80:20 (v/v) as a mobile phase to flow at a flow rate of 1.0 ml/min. […]
smiles,measurement,setting,value
"Nc1nc2[nH]cc(CCc3ccc(C(=O)N[C@@H](CCC(=O)O)C(=O)O)cc3)c2c(=O)[nH]1 [PMX, Pemetrexed]",Permeability (apparent permeation coefficient Papp),[1],"0.50 ± 0.09 ×10^−6, cm/s"
same,"Bioavailability (oral, compared to intravenous injection)",[2],12.0%
same,AUCinf,"[2]; iv, 10 mg/kg","29,390 ± 4,844 ng · h/ml"
same,AUClast,"[2]; iv, 10 mg/kg","31,340 ± 5,342 ng · h/ml"
same,Cmax,"[2]; iv, 10 mg/kg","32,220 ± 13,900 ng/ml"
same,T1/2,"[2]; iv, 10 mg/kg",0.57 ± 0.07 h
same,bioavailability,"[2]; iv, 10 mg/kg",100%
same,AUCinf,"[2]; po, 20 mg/kg","14,300 ± 2,272 ng · h/ml"
same,AUClast,"[2]; po, 20 mg/kg","7,546±938 ng · h/ml"
same,Cmax,"[2]; po, 20 mg/kg","1,487±332 ng/ml"
same,Tmax,"[2]; po, 20 mg/kg",2.75 ± 3.50 h
same,half-life,"[2]; po, 20 mg/kg",7.55 ± 0.94 h
same,Permeability (effective permeability Pe of pemetrexed),[3],"3.73 ± 1.15 ×10^−6, cm/s"
same,AUCinf,[4],"9,414.5 ± 4,223.6 ng · h/ml"
same,AUClast,[4],"9,377.5 ± 4,169.4 ng · h/ml"
same,Cmax,[4],"15,318 ± 6100.3 ng/ml"
same,T1/2,[4],0.35 ± 0.08 h
same,bioavailability,in vivo,1.49%
same,bioavailability,"in vivo; iv, 5 mg/kg",100%
same,AUC(0-inf),"in vivo; po, 50 mg/kg",2560 ng·h/mL
same,AUC(0-t),"in vivo; po, 50 mg/kg",1390 ng·h/mL
same,Cmax,"in vivo; po, 50 mg/kg",452 ± 221 ng/mL
same,Tmax,"in vivo; po, 50 mg/kg",0.83 ± 0.58 h
same,half-life,"in vivo; po, 50 mg/kg",6.06 ± 1.83 h
"O=c1c(O)c(-c2ccc(O)c(O)c2)oc2cc(O)cc(O)c12 [Quercetin, quercetin]",Permeability (effective permeability Pe of quercetin),[5],"4.51 ± 5.10 ×10^−6, cm/s"
